Results taken from patent publication US20210361680A1, “INOSITOL-BASED IMMUNOTHERAPIES” (NormOxys, Inc., priority 2018, published 2021).
“Also recorded” adds a separate entry of the source.

Legend:
[1] = tested on: M2 (CD45+CD11c+CD206+) macrophages; test: Flow cytometry of M2 macrophages in B16F10Luc melanoma; type: in vivo, mouse; conditions: melanoma tumor site
Protocol: (§1) Murine B16F10 cells were implanted in C57BL6 or on Rj:NMRI-nu nude mice leg subcutaneously as we described previously by injecting a spheroid plug of 10^5 cells in 100 μl Matrigel (BD Biosciences).
(§2) ITPP was injected intraperitoneally (1.5 g/kg: in saline) twice a week over 3 weeks. It was started on day7 and repeated on day 8 post tumor inoculation (day 0). The following serial treatments were applied on days 15 and 16, 21 and 22. Tumors were extracted and weighted at the indicated times.
(§3) Tumor samples were immediately transferred in to PBS on ice. Biopsies were cut into small pieces and filtered through cell strainer after being dissociated by collagenase/dispase (Gibco). The samples were depleted of erythrocytes by red blood lysis buffer (eBiosciences).
(§4) Single cell suspensions were stained with mAbs for 1 h at 4° C. Acquisition was performed by one to four color flow cytometry using FACS LSR (Becton Dickinson). Dead cells were excluded on scatter profile. Data were acquired using CellQuest software (Becton Dickinson) on at least 100,000 events. Data were expressed as dot plot or histogram when comparison of fluorescence intensity is needed.
(§5) The following directly conjugated rat anti-mouse mAbs were used for the FACS staining: CD45-PerCP, CD11b-APC, CCR4-PE, CCR5-PE, CCR7-PE, CCR1O-PE and CXCR4-PE were from BD Biosciences. CD49b-APC was from Biolegend. […]

[2] = in vivo; cited from earlier work
PD-L2 = test: Flow cytometry of PD-L2 expression in tumor cell populations; type: in vivo, mouse; conditions: for reduction of the expression of PD-L2: compared with PD-L1
Protocol: as §1, §2, §3
(§6) In specified experiments, tumors were depleted from CD45+ and/or CD31+ cells by magnetic separation (Easy Sep magnet, StemCell Technologies Inc).
as §4
(§7) The following directly conjugated rat anti-mouse mAbs were used for the FACS staining: CD45-PerCP, CD11b-APC, CCR4-PE, CCR5-PE, CCR7-PE, CCR1O-PE and CXCR4-PE were from BD Biosciences. CD49b-APC was from Biolegend. CD226-PE, CD4-FITC, CD25-APC, CD8a-FITC, PD-1-PE, CTLA-4-PE, PDL1-PE-Cy7, PDL2-FITC and CD47-APC were from eBiosciences. CD11c-FITC and GR1-FITC were from Milteny. CD206 was from Santa Cruz. We used anti-mouse Foxp3 staining set PE (eBioscience) for Foxp3 staining.

PD-1 [3] = test: Flow cytometry of PD-1 expressing CD45+ cells in 4T1 mammary carcinoma; type: in vivo, mouse
Protocol: (§8) 4T1murine mammary carcinoma (10^4 cells as spheroid plug in Matrigel) cells were injected in the mammary fat pad of BALBc/by mice.
as §2, §3, §4, §5

immune cells (CD45+) = test: Flow cytometry of CD45+ immune cells in B16F10Luc tumors; type: in vivo, mouse; conditions: ITPP-treated versus control mice
Protocol: as §1, §2, §3, §4, §5

4T1 mammary carcinoma = test: Tumor growth of 4T1 mammary carcinoma in BALB/c-by mice under ITPP treatment; type: in vivo, mouse
Protocol: as §8, §2

CD45+CD11b+Gr1+ MDSCs = test: Flow cytometry of MDSCs in B16F10 Luc melanoma; type: in vivo, mouse
Protocol: as §1, §2, §3, §4, §5

NK cells [4] = test: Flow cytometry of NK cells in B16F10Luc tumors, C57BL6 mice; type: in vivo, mouse
Protocol: as §1, §2, §3, §4, §7

activated NK cells = test: Flow cytometry of activated NK cells in 4T1 mammary carcinoma; type: in vivo, mouse; conditions: 4T1 cells bearing mice
Protocol: as §8, §2, §3, §4, §5

CCR5 = test: Flow cytometry of CCR5 expression in the tumor site; type: in vivo, mouse
Protocol: as §1, §2, §3, §6
as §4, with “needed. […]” for “needed.”

NK cells [5] = test: Flow cytometry of NK cells in B16F10Luc tumors, NRj:NMRI nude mice; type: in vivo, mouse; conditions: B16F10-Luc tumors in nude mice
Protocol: as §1, §2, §3, §4, §5

CXCR4 = test: Flow cytometry of CXCR4 expression in the tumor site; type: in vivo, mouse
Protocol: as §1, §2, §3, §6, §4, §7

CD47 = test: Flow cytometry of CD47 expression in B16F10 tumors; type: in vivo, mouse; conditions: tumor B16F10 melanoma cells
Protocol: as §1, §2, §3, §4, §5

CCR10 = test: Flow cytometry of CCR10 expression in the tumor site; type: in vivo, mouse
Protocol: as §1, §2, §3, §6, §4, §7

[6] = tested on: CD45+CD4+CD25+FoxP3+ Treg cells; test: Flow cytometry of Treg cells in B16F10Luc tumors; type: in vivo, mouse
Protocol: as §1, §2, §3, §4, §5

[7] = tested on: M2 (CD45+CD11c+CD206+) macrophages; test: Flow cytometry of M2 macrophages in 4T1 mammary carcinoma; type: in vivo, mouse
Protocol: as §8, §2, §3, §4, §5

CCR7 = test: Flow cytometry of CCR7 expression in the tumor site; type: in vivo, mouse; conditions: tumor cells
Protocol: as §1, §2, §3, §6
as §4, with “needed. […]” for “needed.”

CX3CR1 = test: Flow cytometry of CX3CR1 expression in the tumor site; type: in vivo, mouse; conditions: endothelial enriched cell population
Protocol: as §1, §2, §3, §6, §4

B16F10 melanoma cells [8] = test: Tumor growth of B16F10 melanoma in Rj:NMRI-nu nude mice under ITPP treatment; type: in vivo, mouse; conditions: ITPP 1.5 g/kg intraperitoneally, day 23, versus controls
Protocol: (§9) Murine B16F10 cells were implanted in C57BL6 or on Rj:NMRI-nu nude mice leg subcutaneously by injecting a plug of 10^5 cells in 100 μl Matrigel (BD Biosciences).
as §1, §2

Treg cells = test: Flow cytometry of Treg cells in 4T1 mammary carcinoma; type: in vivo, mouse; conditions: 4T1 mammary carcinoma bearing BalbC mice
Protocol: as §8, §2, §3, §4, §5

[9] = tested on: M1 (CD45+CD11c+CD206−) macrophages; test: Flow cytometry of M1 macrophages in B16F10 Luc melanoma; type: in vivo, mouse
Protocol: as §1, §2, §3, §4, §5

CD45+CD4+CCR4+ Th2 cells = test: Flow cytometry of Th2 cells in B16F10 Luc melanoma; type: in vivo, mouse
Protocol: as §1, §2, §3, §4, §5

B16F10 melanoma cells [10] = test: Tumor growth of B16F10 melanoma in C57BL6 mice under ITPP treatment; type: in vivo, mouse; conditions: day 23
Protocol: as §9, §1, §2

PD-L1 = test: Flow cytometry of PD-L1 expression in tumor cell populations; type: in vivo, mouse
Protocol: as §1, §2, §3, §6, §4, §7

CTLA-4 = test: Flow cytometry of CTLA-4 expression among CD45+ cells; type: in vivo, mouse
Protocol: as §2, §3, §4
as §7, with “We used anti-mouse Foxp3 staining set PE (eBioscience) for Foxp3 staining.” left out

PD-1 [11] = test: Flow cytometry of PD-1 expressing CD45+ cells in B16F10 melanoma; type: in vivo, mouse
Protocol: as §1, §2, §3, §4, §5

CD31+ endothelial cells = test: Flow cytometry of CD31+ endothelial cells in B16F10Luc melanoma; type: in vivo, mouse; conditions: treated versus non-treated tumors
Protocol: as §1, §2, §3, §4, §5

NK cells [12] = test: Immunocytochemical labelling of NK cell infiltrate in B16F10 Luc tumors; type: in vivo, mouse; conditions: B16F10 Luc tumors extracted on day 23; non-treated: NK cells stuck in the vessels
Protocol: as §1, §2
Tumor tissues were embedded in tissue freezing medium (Tissue-Tek; Sakura) and snap frozen in liquid nitrogen. Tumor cryosections were fixed and stained with mouse anti-CD31 (rat monoclonal IgG2a; eBiosciences), anti-CD49b (Rat IgM; BD Pharmingen) or anti-Firefly Luciferase (Rabbit IgG; Abcam) before tetramethyl rhodamine isothiocyanate or fluorescein isothiocyanate secondary antibodies were added. Nuclei were stained with bisbenzimide H 33258 (Sigma-Aldrich).

cells = conditions: cited from earlier work
[13] = CD31+ endothelial cells of the tumor

## O=P1(O)OC2C3OP(=O)(O)OP(=O)(O)OC3C3OP(=O)(O)OP(=O)(O)OC3C2OP(=O)(O)O1 (centres unmarked) [ITPP, myo-inositol tris pyrophosphate]
[1]
  proportion of M2 (CD45+CD11c+CD206+) macrophages: reduced; also recorded: decreased
[2]
  toxicity for the animals: not to be toxic
PD-L2; [13]
  expression of PD-L2: reduced and less
PD-L2; immune CD45+ cell population
  expression of PD-L2: strongly reduced
PD-L2; separated CD45− cells
  reduction of the expression of PD-L2: to a lesser extent
PD-L2; whole tumor cell populations
  reduction of the expression of PD-L2: to a lesser extent
PD-1 [3]
  CD45+PD-1+ cells among whole tumor populations: increase; also recorded: enriched
Immune cells (CD45+)
  proportion of immune cells (CD45+) in the tumor: higher
4T1 mammary carcinoma; 4T1, day 31, after arrest of treatment on day 21
  mammary carcinoma reduction: up to 50%
4T1 mammary carcinoma; 4T1 mammary carcinoma in BALB/c-by mice, ITPP 1.5 g/kg intraperitoneally, day 31, versus controls
  tumor size: reduction of the tumor size; also recorded: half size of the controls
CD45+CD11b+Gr1+ MDSCs
  MDSCs proportion in the tumor: reduced
NK cells [4]; B16F10-Luc tumors in normal C57Bl6 mice
  proportions of NK cells found in the tumor before and after ITPP treatments (R): 2.25
NK cells [4]; CD45+CD49+ NK cells, B16F10Luc tumors, C57BL6 mice
  number of NK cells in the tumor site: doubled
NK cells [4]; melanoma bearing mice, after ITPP treatment
  numbers of activated (CD45+CD49b+CD226+) NK cells: increase
Activated NK cells
  recruitment of activated NK cells: higher recruitment
CCR5; CD45+ population
  CCR5 expression: inverse effect
CCR5; tumor cells
  CCR5 expression: radical effect
NK cells [5]
  proportions of NK cells found in the tumor before and after ITPP treatments (R): 2.25
CXCR4; CD45+ cells
  CXCR4 expression: not affected
CXCR4; endothelial enriched cell population
  CXCR4 expression: not affected
CXCR4; tumor cells
  cells expressing CXCR4: strongly reduced
CD47
  intensity of CD47 expression: reduced
CCR10; B16F10 cells
  cells expressing CCR10: reduced
CCR10; endothelial cells enriched population
  increase of cells expressing CCR10 (R): 2
CCR10; immune cells (CD45+)
  increase of cells expressing CCR10 (R): 10
[6]
  proportions of CD45+CD4+CD25+FoxP3+ Treg cells: very significantly decreased; also recorded: reduced
[7]
  proportion of M2 (CD45+CD11c+CD206+) macrophages: reduced; also recorded: decreased
CCR7
  CCR7 expression: total reduction
CX3CR1
  expression of the fractalkine receptor CX3CR1: induced expression
B16F10 melanoma cells [8]
  tumor size: reduction of the tumor size; also recorded: half size of the controls
Treg cells
  Treg cell numbers: reducing effect; also recorded: reduced
[9]
  numbers of macrophages expressing the M1 (CD45+CD11c+CD206−) phenotype: tendency to increase; also recorded: tended to increase
CD45+CD4+CCR4+ Th2 cells
  proportion of Th2 cells (CD45+CD4+CCR4+) in the tumor site: decrease; also recorded: reduced
B16F10 melanoma cells [10]; B16F10 melanoma in normal C57BL6 mice, ITPP 1.5 g/kg intraperitoneally, versus controls
  tumor size: reduction of the tumor size; also recorded: half size of the controls
B16F10 melanoma cells [10]; melanoma cells, treatments stopped on day 21
  tumor growth: 50%
PD-L1; [13]
  expression of PD-L1: considerably reduced and less
PD-L1; immune CD45+ cell population
  expression of PD-L1: strongly reduced
PD-L1; separated CD45− cells
  expression of PD-L1: clear reduction
PD-L1; whole tumor cell populations
  expression of PD-L1: clear reduction
CTLA-4
  CTLA-4 expression: No significant change
PD-1 [11]
  CD45+PD-1+ cells among whole tumor populations: increase; also recorded: enriched
CD31+ endothelial cells
  proportion of CD31+ endothelial cells: higher; also recorded: increased
NK cells [12]
  NK cell (CD49b+) infiltrate in the tumor: infiltrated the tumor mass
cells
  toxicity for cells treated separately: not to be toxic
